The values below come from patent US4774248A, “Methods of treating depression and depressive states using 5-phenyl-1,4,5,6-tetrahydropyrimidine derivatives” (priority 1985, dated 1988).

The subject of data set [1] is mice. The data set can be described thus: Motility reduced by hypoxic aggression (acute hypobaric anoxia). It counts as in vivo. As to conditions: i.p. Here is the method: In these tests, solutions of the said products in distilled water were administered intraperitoneally in a volume of 20 ml/kg to male mice and in a volume of 5 ml/kg to male rats.
The next data set deals with anesthetized dogs. The data set can be described thus: Cardiovascular study in anesthetized dogs. In kind it is in vivo. The following applies: for effects of isoprenaline: isoprenaline 10 μg/kg; for hypertension induced by norepinephrine: norepinephrine 2 μg/kg. The method, then: Groups of 2 adult dogs (each weighing 10 to 18 kg), anesthetized with nembutal, receive each test product (i) by intraduodenal administration at successive doses of 0.1 mg/kg, 0.5 mg/kg, 1 mg/kg, 2.5 mg/kg, 5 mg/kb, 10 mg/kg and 20 mg/kg, and then (ii) if appropriate, by intravenous administration at a dose of 10 mg/kg. The effects of 10 μg/kg of isoprenaline and/or 2 μg/kg of norepinephrine after the intraduodenal administration of a cumulative dose of 39.1 mg/kg are also assessed.
The following are measured: the total arterial blood pressure, the diastolic arterial blood pressure, the heart rate, the blood flows through the femoral and cerebral arteries and saphenous veins, the rectal temperature, the skin temperature and the pressure of the gases (essentially O2) dissolved in the arterial blood.

Data set [2] has as its system mice. The data set can be described thus: Electric shock. The following applies: i.p. In kind it is in vivo. The method, then: (§1) The results of toxicological and neuropsychopharmacological tests which were carried out with the products according to the invention have been summarized below. In these tests, solutions of the said products in distilled water were administered intraperitoneally in a volume of 20 ml/kg to male mice and in a volume of 5 ml/kg to male rats.
(§2) The test is performed on groups of 10 mice 30 minutes after the administration of CRL 41 378.

Data set [3] concerns mice. The data set can be described thus: Overall behavior and reactivities in mice. In kind it is in vivo. The following applies: i.p. A digest of the protocol:
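Male mice (20 ml/kg) and male rats (5 ml/kg) dosed intraperitoneally with compound in distilled water.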

Data set [4] relates to stereotypies induced by apomorphine. Description: Interaction with apomorphine in rats. It counts as in vivo. As to conditions: i.p., apomorphine 0.5 mg/kg s.c. The method, then:
as §1
CRL 41 378 is administered to groups of 12 rats 0.5 h before the subcutaneous injection of 0.5 mg/kg of apomorphine.

The subject of data set [5] is mice. The data set can be described thus: Four plate test. As to conditions: i.p. It counts as in vivo. The method, then: as §1, §2
Data set [6] relates to sleep induced by barbital. Description: Interaction with barbital. In kind it is in vivo. The following applies: mice, i.p.; barbital 220 mg/kg. Here is the method:
as §1
Half an hour after the administration of CRL 41 378, groups of 10 mice receive an intraperitoneal injection of barbital (220 mg/kg).

For the next data set, the system named is male mice. Description: Acute toxicity, intraperitoneal (LD0, LD30, LD60, LD100). In kind it is in vivo. Here is the method: as §1
Data set [7] has as its system stereotypies induced by amphetamine. Description: Interaction with amphetamine (rats). It counts as in vivo. The following applies: i.p.; amphetamine 2 mg/kg. Here is the method: as §1
(§3) Amphetamine (2 mg/kg) is injected intraperitoneally into groups of 6 rats 30 minutes after the administration of CRL 41 378.

Another data set in a line: pH of aqueous solution. It counts as physicochemical. Here is the method: The tests were carried out in solution in water at pH 4.0-5.5. The pH of the aqueous solution of CRL 41 378 varies according to the concentration: it is 4.0 at a concentration of 50 g/l, 4.5 at 12.5 g/l, 5.0 at 0.8 g/l and 5.5 at CRL 41 378 concentrations less than or equal to 0.2 g/l.
The test system of data set [8] is stereotypies induced by amphetamine. The data set can be described thus: Interaction with amphetamine (mice as printed). It counts as in vivo. As to conditions: in mice (so in the source), i.p. Here is the method:
as §3
Using the procedures given above, the following results were obtained with a solution of CRL 41 382 in water at pH 6.

Data set [9] has as its system mice. Description: Behavioral despair (forced immersion). In kind it is in vivo. As to conditions: mice which have been forcibly immersed, i.p.; hydrochloride.

Entries after “also recorded” stand apart in the source; their conditions may differ.

Turning to `CC(=O)N1C=NCC(c2ccccc2)C1.Cl` (stereo not drawn) [CRL 41 378, 1-acetyl-5-phenyl-1,4,5,6-tetrahydropyrimidine hydrochloride], the “lethal effects of hypobaric anoxia” value in the data set with mice [1] is “At a dose of 64 mg/kg, CRL 41 378 aggravates the effects of hypobaric anoxia and causes the death of all the animals treated”. The “motor recovery after acute hypobaric hypoxia” value in the data set on mice [1] is “at doses of 1 mg/kg, 4 mg/kg and 16 mg/kg, CRL 41 378 does not cause a modification of the motor recovery”. Moreover, in the data set on anesthetized dogs, the rectal temperature entry is recorded as “increases the rectal temperature”. For the same molecule, the skin temperature result in the data set on anesthetized dogs is “does not cause a distinct modification of the skin temperature”. Besides, the arterial blood pressure result with anesthetized dogs (intraduodenal) is listed as “no effect on the arterial blood pressure by intraduodenal administration”; with anesthetized dogs (intravenous) it was “hypotensive by intravenous administration”. The effects of isoprenaline entry in the data set on anesthetized dogs is listed as “decreases the effects of isoprenaline on the heart rate”. Besides, the “hypertension induced by norepinephrine” value in the data set on anesthetized dogs was “decreases the hypertension induced by norepinephrine”. The “convulsant effects of electric shock” value in the data set with mice [2] is reported as “without modifying the convulsant effects”. Also, the “lethal effects of electric shock” value in the data set on mice [2] was “At the two highest doses studied (16 and especially 64 mg/kg), CRL 41 378 strongly aggravates the lethal effects of electric shock”. For the same molecule, the “overall behavior and reactivities” value in the data set with mice [3] (1 mg/kg) was “no distinct modification of the behavior and reactivities compared with the control animals”; in the data set with mice [3] (4 mg/kg), “moderate mydriasis for 3 h, the maximum intensity being reached 1 h after administration”; in the data set with mice [3] (16 mg/kg, hydrochloride), “moderate salivation 1 h after administration; also recorded: moderate hypothermia; also recorded: moderate mydriasis 1 h after administration”; in the data set with mice [3] (64 mg/kg, hydrochloride), “sedation for 3 h; also recorded: a decrease in the breathing rate appearing between T+0.5 h and T+1 h after administration; also recorded: moderate hypothermia; also recorded: an increase in the reactivity to touch and vasodilation of the paws for 0.5 h; also recorded: salivation appearing between T+1 h and T+2 h after administration; also recorded: mydriasis for 3 h”. Besides, in data set [4] (hydrochloride), the “action on stereotypies induced by apomorphine” value was “at the two highest doses used (8 and 32 mg/kg), CRL 41 378 seems to cause a moderate decrease in the stereotypies induced by apomorphine; also recorded: moderate antagonism of the stereotyped movements induced by apomorphine in rats”. Besides, the “number of punished passes” value in the data set with mice [5] is reported as “does not modify the number of punished passes”. Also, in [6], the “duration of the sleep induced by barbital” value is on record as “practically no modification of the duration of the sleep induced by barbital”. Further, the “toxic signs in the animals treated” value with male mice (256 mg/kg i.p.) was “all the animals treated exhibit dyspnea, substantial salivation and convulsions 10 minutes after administration”. For the same molecule, the “LD0 (maximum non-lethal dose)” value in the data set on male mice (intraperitoneal) was “greater than 256 mg/kg”. Besides, in [7], the “action on stereotypies induced by amphetamine” value was “at the highest dose used (32 mg/kg), CRL 41 378 potentiates the stereotypies induced by amphetamine”. The “pH of the aqueous solution” value worked out at 5.0 in “pH of aqueous solution” (0.8 g/l), 4.5 in “pH of aqueous solution” (12.5 g/l), 4.0 in the data set “pH of aqueous solution” (50 g/l) and 5.5 in “pH of aqueous solution” (less than or equal to 0.2 g/l).

For `Cl.OC1(c2ccccc2)CN=CNC1` (stereo not drawn) [CRL 41 382, 5-hydroxy-5-phenyl-1,4,5,6-tetrahydropyrimidine hydrochloride], the “motor recovery after acute hypobaric hypoxia” value in the data set on mice [1] (hydrochloride) is “At doses of 16 mg/kg and 64 mg/kg, CRL 41 382 causes an increase in the motor recovery; also recorded: moderate increase in the motor recovery of mice after acute hypobaric hypoxia”. Also, the “action on stereotypies induced by amphetamine” value in data set [8] is on record as “practically no modification of the stereotypies induced by amphetamine”. For the same molecule, in the data set on anesthetized dogs, the rectal temperature result is “increases the rectal temperature”; the skin temperature entry was “decreases the blood flows through the femoral and vertebral arteries and also the skin temperature”; the α-adrenergic stimulant effect entry was “seems to have an α-adrenergic stimulant effect”; the effects of isoprenaline entry was “does not modify the effects of isoprenaline”. Moreover, the “hypertension induced by norepinephrine” value in the data set with anesthetized dogs was “increases the hypertension caused by norepinephrine”. Further, in the data set with anesthetized dogs (intraduodenal), the arterial blood pressure entry is given as “hypertensive” and the heart rate entry was “practically no effect on the heart rate”. For the same molecule, in the data set on anesthetized dogs (intravenous), the arterial blood pressure result is reported as “hypotensive” and the heart rate entry is “bradycardic”. Further, the “lethal effects of electric shock” value in the data set on mice [2] is on record as “aggravates (at a dose of 64 mg/kg) the lethal effects of electric shock”. In the data set with mice [2] (hydrochloride), the “convulsant effects of electric shock” value is “does not oppose the convulsant effects; also recorded: absence of any anticonvulsant action”. In addition, in the data set with mice [3] (1 mg/kg, 4 mg/kg and 16 mg/kg), the “overall behavior and reactivities” value is “no distinct modification of the behavior and reactivities compared with the control animals”. The “overall behavior and reactivities” value in the data set with mice [3] (64 mg/kg, hydrochloride) is “sedation for 1 h; also recorded: a decrease in the reactivity to touch and the fear reaction for 0.5 h”. The “action on stereotypies induced by apomorphine” value in [4] is on record as “practically no modification of the stereotypies induced by apomorphine”. In addition, the period of immobility entry in the data set on mice [9] was “does not modify the period of immobility; also recorded: absence of antagonism of the immobility due to "despair"”. In addition, the “number of punished passes” value with mice [5] is on record as “practically no modification of the number of punished passes”. In addition, the “duration of the sleep induced by barbital” value in data set [6] is “practically no modification of the duration of the sleep induced by barbital”. Moreover, in the data set with male mice (intraperitoneal), the “LD0 (maximum non-lethal dose)” value is “greater than 256 mg/kg” and the LD60 is listed as around 500 mg/kg.
